Source: patent publication US9283280B2, “Compositions for drug administration” (Aegis Therapeutics, LLC, priority 2008, dated 2016)

Columns and labels:
blood D-glucose [1] = test: Insulin eye drops with absorption enhancer in xylazine/ketamine-anesthetized hyperglycemic rats, blood D-glucose; format: in vivo, rat
[2] = Intranasal triptans with alkylsaccharide in rats, plasma levels by HPLC; format: in vivo;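 note: rats in groups of eight given 20 µL into one nostril, dose expressed as triptan free base, Cmax and Tmax read from plasma concentration–time curves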
blood D-glucose [3] = test: Glucagon eye drops with surfactant in rats, elevation of blood D-glucose; conditions: for Blood Glucose Concentration: glucagon eye drops + 0.5% surfactant added after 120 min
Method: Glucagon absorption from the eye was measured in rats given eye drops containing various surfactants plus glucagon (30 μg) (Eli Lilly, Indianapolis, Ind.) by monitoring an elevation in blood D-glucose levels. In these experiments, rats were anesthetized with sodium pentobarbital rather than xylazine/ketamin.
Paired animals that receive eye drops containing the surfactant alone, or glucagon alone, were compared to animals receiving eye drops with the surfactant plus glucagon.

[4] = Naratriptan 0.22 mg/kg intranasal, alkylsaccharide 0.02%
[5] = Naratriptan 0.22 mg/kg intranasal, alkylsaccharide 0.05%
[6] = Naratriptan 0.22 mg/kg intranasal, alkylsaccharide 0.1%
[7] = Naratriptan 0.22 mg/kg intranasal, alkylsaccharide 0.5%
[8] = Naratriptan 0.22 mg/kg intranasal, alkylsaccharide 2%
[9] = Sumatriptan 6.2 mg/kg intranasal, alkylsaccharide 0.02%
[10] = Sumatriptan 6.2 mg/kg intranasal, alkylsaccharide 0.05%
[11] = Sumatriptan 6.2 mg/kg intranasal, alkylsaccharide 0.1%
[12] = Sumatriptan 6.2 mg/kg intranasal, alkylsaccharide 0.5%
[13] = Sumatriptan 6.2 mg/kg intranasal, alkylsaccharide 2%

## CCCCCCCCCCCCCO[C@@H]1O[C@H](CO)[C@@H](O[C@H]2O[C@H](CO)[C@@H](O)[C@H](O)[C@H]2O)[C@H](O)[C@H]1O [tridecyl maltoside, tridecyl-β-D-maltoside]
Blood D-glucose [1]; 0.5% surfactant, time −10 min, before insulin eye drops
  Blood Glucose Concentration: 307 mg/dL
Blood D-glucose [1]; 0.5% surfactant, time −20 min, before insulin eye drops
  Blood Glucose Concentration: 255 mg/dL
Blood D-glucose [1]; eye drops 0.2% insulin + 0.5% enhancer
  hypoglycemic effect / insulin absorption enhancement: effective
Blood D-glucose [1]; eye drops 0.2% insulin + […] enhancer
  hypoglycemic effect / insulin absorption enhancement: sustained for the two hour time course
Blood D-glucose [1]; insulin eye drops + 0.5% surfactant, time 0 min
  Blood Glucose Concentration: 323 mg/dL
Blood D-glucose [1]; insulin eye drops + 0.5% surfactant, time 10 min
  Blood Glucose Concentration: 309 mg/dL
Blood D-glucose [1]; insulin eye drops + 0.5% surfactant, time 20 min
  Blood Glucose Concentration: 217 mg/dL
Blood D-glucose [1]; insulin eye drops + 0.5% surfactant, time 30 min
  Blood Glucose Concentration: 131 mg/dL
Blood D-glucose [1]; insulin eye drops + 0.5% surfactant, time 40 min
  Blood Glucose Concentration: 100 mg/dL
Blood D-glucose [1]; insulin eye drops + 0.5% surfactant, time 50 min
  Blood Glucose Concentration: 87 mg/dL
Blood D-glucose [1]; insulin eye drops + 0.5% surfactant, time 60 min
  Blood Glucose Concentration: 107 mg/dL
Blood D-glucose [1]; insulin eye drops + 0.5% surfactant, time 70 min
  Blood Glucose Concentration: 115 mg/dL
Blood D-glucose [1]; insulin eye drops + 0.5% surfactant, time 80 min
  Blood Glucose Concentration: 79 mg/dL
Blood D-glucose [1]; insulin eye drops + 0.5% surfactant, time 90 min
  Blood Glucose Concentration: 85 mg/dL
Blood D-glucose [1]; insulin eye drops + 0.5% surfactant, time 100 min
  Blood Glucose Concentration: 76 mg/dL
Blood D-glucose [1]; insulin eye drops + 0.5% surfactant, time 110 min
  Blood Glucose Concentration: 74 mg/dL
Blood D-glucose [1]; insulin eye drops + 0.5% surfactant, time 120 min
  Blood Glucose Concentration: 75 mg/dL
[2]; [4]
  Ratio Cmax(alkylsacch)/Cmax(No alkylsacch): ≦1.5
  Tmax: ~60 min
[2]; [5]
  Ratio Cmax(alkylsacch)/Cmax(No alkylsacch): ≧1.5
  Tmax: ~5 to 15 min
[2]; [6]
  Ratio Cmax(alkylsacch)/Cmax(No alkylsacch): ≧1.5
  Tmax: ~5 to 15 min
[2]; [7]
  Ratio Cmax(alkylsacch)/Cmax(No alkylsacch): ≧1.5
  Tmax: ~5 to 15 min
[2]; [8]
  Ratio Cmax(alkylsacch)/Cmax(No alkylsacch): ≧1.5
  Tmax: ~5 to 15 min
[2]; Rizatriptan […] intranasal, alkylsaccharide 0.02%
  Tmax: ~60 min
[2]; Rizatriptan […] intranasal, alkylsaccharide 0.05%
  Tmax: ~5 to 15 min
[2]; Rizatriptan […] intranasal, alkylsaccharide 0.1%
  Tmax: ~5 to 15 min
[2]; Rizatriptan […] intranasal, alkylsaccharide 0.5%
  Tmax: ~5 to 15 min
[2]; Rizatriptan […] intranasal, alkylsaccharide 2%
  Tmax: ~5 to 15 min
[2]; [9]
  Ratio Cmax(alkylsacch)/Cmax(No alkylsacch): ≦1.5
  Tmax: ~60 min
[2]; [10]
  Ratio Cmax(alkylsacch)/Cmax(No alkylsacch): ≧1.5
  Tmax: ~5 to 15 min
[2]; [11]
  Ratio Cmax(alkylsacch)/Cmax(No alkylsacch): ≧1.5
  Tmax: ~5 to 15 min
[2]; [12]
  Ratio Cmax(alkylsacch)/Cmax(No alkylsacch): ≧1.5
  Tmax: ~5 to 15 min
[2]; [13]
  Ratio Cmax(alkylsacch)/Cmax(No alkylsacch): ≧1.5
  Tmax: ~5 to 15 min
Blood D-glucose [3]; eye drops surfactant plus glucagon in rats previously treated with surfactant plus insulin eye drops
  glucagon absorption / blood D-glucose values: increase significantly
Blood D-glucose [3]; time 130 min
  Blood Glucose Concentration: 82 mg/dL
Blood D-glucose [3]; time 140 min
  Blood Glucose Concentration: 121 mg/dL
Blood D-glucose [3]; time 150 min
  Blood Glucose Concentration: 148 mg/dL
Blood D-glucose [3]; time 160 min
  Blood Glucose Concentration: 173 mg/dL
Blood D-glucose [3]; time 170 min
  Blood Glucose Concentration: 162 mg/dL
Blood D-glucose [3]; time 180 min
  Blood Glucose Concentration: 162 mg/dL
Blood D-glucose [3]; time 190 min
  Blood Glucose Concentration: 156 mg/dL
